Results from US12076307B2, “Compositions for prevention or treatment of acute radiation syndrome and other radiation exposure” (priority 2017, dated 2024).
Values joined by “and” are separate entries in the source; they are usually repeats but may differ in a detail not shown here. Identical values can stand only once. Marks after values point to notes of the source that are not given here.

Tested on: Balb/c mice, 6.11 Gy TBI
Assay: Dose optimization / pharmacodynamics study in LD70/30 ARS model (40 mice per group)
[1] = 6.11 Gy, EC-18 50 mg/kg daily from day 1, 30 days
[2] = 6.11 Gy, EC-18 100 mg/kg daily from day 1, 30 days
[3] = 6.11 Gy, EC-18 250 mg/kg daily from day 1, 30 days
[4] = 6.11 Gy, EC-18 500 mg/kg daily from day 1, 30 days

CCCCC/C=C\C/C=C\CCCCCCCC(=O)OC(COC(C)=O)COC(=O)CCCCCCCCCCCCCCC (centres unmarked) [EC-18, 1-palmitoyl-2-linoleoyl-3-acetylglycerol]
No. of mice that survived/total [1]: 24/40
Survivability / Survival [1]: 60%
Survival time of decedents, Mean ± SEM (6.11 Gy, EC-18 50 mg/kg, 50 mg/kg): 24.3 days and 24.3 ± 1.2 days
Survival time of decedents, Mean ± SEM (6.11 Gy, EC-18 100 mg/kg): 22.8 ± 1.7 days
Survival time of decedents, Median (6.11 Gy, EC-18 100 mg/kg): 26.0 days
No. of mice that survived/total [2]: 27/40
Survival [2]: 67.5%
Survival time of decedents, Median (6.11 Gy, EC-18 250 mg/kg): 27.5 days
No. of mice that survived/total [3]: 34/40
Survivability / Survival [3]: 85%
Survival time of decedents, Mean ± SEM (6.11 Gy, EC-18 250 mg/kg, 250 mg/kg): 27.8 days and 27.8 ± 0.4 days
Survival time of decedents, Median (6.11 Gy, EC-18 500 mg/kg): 19.5 days
No. of mice that survived/total [4]: 34/40
Survivability / Survival [4]: 85%
Survival time of decedents, Mean ± SEM (6.11 Gy, EC-18 500 mg/kg, 500 mg/kg): 20.3 days and 20.3 ± 1.5 days
radiation-induced depletion of ANC (and WBC) (50 and 250 mg/kg, dose-dependent): significantly attenuated
Mean of the First Day Of Anemia (HGB <12 g/dL) (±SE) (EC-18 50 mg/kg): 10.4 ± 0.7 (5-15)
Mean of the First Day of Neutropenia (ANC <500 cells/μL) (±SE) (EC-18 50 mg/kg): 3.0 ± 0.0 (3-3)
Mean of the First Day of Thrombocytopenia (PLT <100 × 10^3 cells/μL) (±SE) (EC-18 50 mg/kg): 10.0 ± 0.0 (10-10)
Mean of the First Day of SN (ANC <100 cells/μL) (±SE) (EC-18 50 mg/kg, 50 mg/kg): 5.7 ± 0.6 (3-10) days
Mean Duration of Anemia in Days (±SE) (EC-18 50 mg/kg, n=17): 15.0 ± 0.8^b (7-19) Days
Mean Duration of Neutropenia in Days (±SE) (EC-18 50 mg/kg, n=19): 21.0 ± 0.7^b (17-24) Days
Mean Duration of SN in Days (±SE) (EC-18 50 mg/kg, n=19): 11.4 ± 0.9^b (5-19) Days
Mean Duration of Thrombocytopenia in Days (±SE) (EC-18 50 mg/kg, n=19): 12.8 ± 0.8^b (7-17) Days
Mean of the First Day Of Anemia (HGB <12 g/dL) (±SE) (EC-18 100 mg/kg): 11.0 ± 0.5 (5-15)
Mean of the First Day of Neutropenia (ANC <500 cells/μL) (±SE) (EC-18 100 mg/kg): 3.0 ± 0.0 (3-3)
Mean of the First Day of Thrombocytopenia (PLT <100 × 10^3 cells/μL) (±SE) (EC-18 100 mg/kg): 10.0 ± 0.0 (10-10)
Mean of the First Day of SN (ANC <100 cells/μL) (±SE) (EC-18 100 mg/kg, 100 mg/kg): 5.1 ± 0.5 (3-10) days
Mean Duration of Anemia in Days (±SE) (EC-18 100 mg/kg, n=17): 15.5 ± 0.5^c (12-20) Days
Mean Duration of Neutropenia in Days (±SE) (EC-18 100 mg/kg, n=18): 23.9 ± 0.5^c (19-27) Days
Mean Duration of SN in Days (±SE) (EC-18 100 mg/kg, n=18): 13.4 ± 1.3^c (7-25) Days
Mean Duration of Thrombocytopenia in Days (±SE) (EC-18 100 mg/kg, n=18): 14.7 ± 1.0^c (5-20) Days
Mean of the First Day Of Anemia (HGB <12 g/dL) (±SE) (EC-18 250 mg/kg): 12.1 ± 0.5 (10-15)
Mean of the First Day of Neutropenia (ANC <500 cells/μL) (±SE) (EC-18 250 mg/kg): 3.2 ± 0.1 (3-5)
Mean of the First Day of Thrombocytopenia (PLT <100 × 10^3 cells/μL) (±SE) (EC-18 250 mg/kg): 10.1 ± 0.1 (10-12)
Mean of the First Day of SN (ANC <100 cells/μL) (±SE) (EC-18 250 mg/kg, 250 mg/kg): 8.5 ± 1.0 (3-17) days
Mean Duration of Anemia in Days (±SE) (EC-18 250 mg/kg, n=19): 9.7 ± 0.7^d (5-17) Days
Mean Duration of Neutropenia in Days (±SE) (EC-18 250 mg/kg, n=20): 21.2 ± 0.7^d (17-27) Days
Mean Duration of SN in Days (±SE) (EC-18 250 mg/kg, n=20): 7.2 ± 0.7^d (2-12) Days
Mean Duration of Thrombocytopenia in Days (±SE) (EC-18 250 mg/kg, n=20): 6.7 ± 0.5^d (3-12) Days
Mean of the First Day Of Anemia (HGB <12 g/dL) (±SE) (EC-18 500 mg/kg): 12.2 ± 0.5 (7-15)
Mean of the First Day of Neutropenia (ANC <500 cells/μL) (±SE) (EC-18 500 mg/kg): 3.4 ± 0.2 (3-5)
Mean of the First Day of Thrombocytopenia (PLT <100 × 10^3 cells/μL) (±SE) (EC-18 500 mg/kg): 10.1 ± 0.1 (10-12)
Mean of the First Day of SN (ANC <100 cells/μL) (±SE) (EC-18 500 mg/kg, 500 mg/kg): 7.0 ± 0.9 (3-20) days
Mean Duration of Anemia in Days (±SE) (EC-18 500 mg/kg, n=19): 14.0 ± 0.8^e (7-20) Days
Mean Duration of Neutropenia in Days (±SE) (EC-18 500 mg/kg, n=19): 21.9 ± 0.6^e (17-27) Days
Mean Duration of SN in Days (±SE) (EC-18 500 mg/kg, n=19): 9.6 ± 0.6^e (2-14) Days
Mean Duration of Thrombocytopenia in Days (±SE) (EC-18 500 mg/kg, n=19): 12.3 ± 0.7^e (7-20) Days
severity of the nadir (mouse, in vivo): diminished
timing of nadirs for neutrophils, PLTs, red blood cells, hemoglobin (mouse, in vivo): unchanged
